Data as given in ChEMBL document CHEMBL1949499, “Nicotinic acids: liver-targeted SCD inhibitors with preclinical anti-diabetic efficacy” (Bioorg Med Chem Lett, 2011).
Calls of active or inactive are those of the source. The calls are words filed in the database; no cut-off is given here.

Key:
Acyl-CoA desaturase 1 [1] = biological target: T1, Acyl-CoA desaturase 1 (Rattus norvegicus, UniProt P07308); experiment: Inhibition of rat SCD1
T1 sequence (P07308 whole entry): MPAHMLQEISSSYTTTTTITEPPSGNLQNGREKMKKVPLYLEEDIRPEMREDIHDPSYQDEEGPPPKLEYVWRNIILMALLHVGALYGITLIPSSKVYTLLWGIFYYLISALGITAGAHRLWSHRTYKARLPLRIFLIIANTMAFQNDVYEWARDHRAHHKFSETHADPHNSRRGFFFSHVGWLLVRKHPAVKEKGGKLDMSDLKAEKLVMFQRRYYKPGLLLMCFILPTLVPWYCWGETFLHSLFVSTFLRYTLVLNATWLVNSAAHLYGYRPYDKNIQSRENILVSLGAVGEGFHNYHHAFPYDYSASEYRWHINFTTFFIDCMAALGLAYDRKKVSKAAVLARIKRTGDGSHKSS

Stearoyl-CoA desaturase = biological target: T2, Stearoyl-CoA desaturase (Homo sapiens, UniProt O00767); experiment: Inhibition of human SCD1 expressed in human HepG2 cells assessed as conversion of [14C]stearic acid to [14C]oleic acid; format: cell-based
T2 sequence (O00767 whole entry): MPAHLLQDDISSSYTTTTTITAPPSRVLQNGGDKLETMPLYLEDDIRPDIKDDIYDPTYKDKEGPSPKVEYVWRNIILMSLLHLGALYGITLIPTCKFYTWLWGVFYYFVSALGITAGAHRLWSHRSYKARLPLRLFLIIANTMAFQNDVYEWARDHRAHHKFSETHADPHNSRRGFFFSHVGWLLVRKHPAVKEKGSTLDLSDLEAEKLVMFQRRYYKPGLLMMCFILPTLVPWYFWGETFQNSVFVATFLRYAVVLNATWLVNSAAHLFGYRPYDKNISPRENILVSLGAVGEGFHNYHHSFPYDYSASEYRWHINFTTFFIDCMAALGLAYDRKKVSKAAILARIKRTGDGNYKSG

Acyl-CoA desaturase 1 [2] = biological target: T1, Acyl-CoA desaturase 1; experiment: Inhibition of SCD1 in Sprague-Dawley rat hepatocytes assessed as conversion of [14C]oleic acid formation by HPLC analysis; format: cell-based, Hepatocyte
[3] = Ratio of drug uptake in left median liver lobe to harderian gland in C57/BL6 mouse at 10 mg/kg, po after 6 hrs; format: ADME, organism-based; design: dose 10 mg/kg, route oral; conditions: in vivo
HepG2 = experiment: Selectivity ratio of IC50 for human SCD1 expressed in human HepG2 cells to IC50 for rat SCD1 in Sprague-Dawley rat hepatocytes; format: cell-based
[4] = Drug uptake in high fat diet fed C57/BL6 mouse eDIO model whole blood at 100 mg/kg, po after 3 hrs; format: ADME, organism-based; design: dose 100 mg/kg, route oral; conditions: read-out: Drug uptake
[5] = Drug uptake in high sucrose/fat free diet fed C57/BL6 mouse liver at 100 mg/kg, po after 3 hrs; format: ADME, organism-based; design: dose 100 mg/kg, route oral; conditions: read-out: Drug uptake
[6] = Plasma concentration in high sucrose/fat free diet fed C57/BL6 mouse at 100 mg/kg, po after 3 hrs; format: ADME, organism-based; design: dose 100 mg/kg, route oral
Mus musculus [7] = experiment: Inhibition of SCD activity in high sucrose/fat free diet fed C57/BL6 mouse liver assessed as reduction in conversion of [14C]stearic acid to [14C]oleic acid at 100 mg/kg, po; format: functional
Mus musculus [8] = experiment: Acute antidiabetic activity in high fat diet fed C57/BL6 mouse eDIO model assessed as increase in glucose clearance at 100 mg/kg, po administered 1 hr prior to glucose challenge by oGTT assay; format: functional
Nucleic Acid = experiment: Ratio of drug uptake in high fat diet fed C57/BL6 mouse eDIO model whole blood to high sucrose/fat free diet fed C57/BL6 mouse plasma; format: ADME; conditions: in vivo

IC50 (Acyl-CoA desaturase 1 [1]) [nM] | IC50 (Stearoyl-CoA desaturase) [nM] | IC50 (Acyl-CoA desaturase 1 [2]) [nM] | Structure (SMILES) | further results
> 10000 |  |  | O=C(O)c1ccc(N2CCC(Oc3ccccc3C(F)(F)F)CC2)nn1 | 
107 | 1110 |  | O=C(O)c1cccc(-c2ccc(N3CCC(Oc4ccccc4C(F)(F)F)CC3)nn2)c1 | 
8 | 128 | 159 | O=C(O)c1ccc(-c2ccc(N3CCC(Oc4cc(F)ccc4Br)CC3)nn2)nc1 | 
105 | 550 |  | O=C(O)c1ccc(-c2ccc(N3CCC(Oc4ccccc4C(F)(F)F)CC3)nn2)cc1 | 
772 |  |  | O=C(O)c1cncc(-c2ccc(N3CCC(Oc4cc(F)ccc4Br)CC3)nn2)n1 | 
2680 |  |  | O=C(O)Cc1ccc(N2CCC(Oc3ccccc3C(F)(F)F)CC2)nn1 | 
129 | > 20000 | 1300 | O=C(O)c1cncc(-c2ccc(N3CCC(Oc4ccccc4C(F)(F)F)CC3)nn2)c1 | 
166 | > 10000 | 1890 | O=C(O)c1cncc(-c2ccc(N3CCC(Oc4ccccc4Cl)CC3)nn2)c1 | 
20 | 780 | 75 | O=C(O)Cc1cncc(-c2ccc(N3CCC(Oc4cc(F)ccc4Br)CC3)nn2)c1 | Ratio [3]: 4; Ratio IC50 (HepG2): 10
1220 |  |  | O=C(O)c1cncc(-c2ccc(N3CCC(Oc4cc(F)ccc4Br)CC3)cn2)c1 | 
15 | 8260 | 563 | O=C(O)c1cncc(-c2ccc(N3CCC(Oc4cc(F)c(F)cc4Br)CC3)nn2)c1 | 
47 | 18300 | 1640 | O=C(O)c1cncc(-c2ccc(N3CCC(Oc4ccccc4Br)CC3)nn2)c1 | Ratio IC50 (HepG2): 11
69 | 6720 | 1360 | O=C(O)c1cncc(-c2cnc(N3CCC(Oc4cc(F)ccc4Br)CC3)cn2)c1 | Ratio [3]: 12
8440 |  |  | O=C(O)c1cncc(-c2ccc(N3CCC(Oc4ccccc4C(F)(F)F)CC3)cc2)c1 | 
77 | 9420 | 3050 | O=C(O)c1cncc(-c2cnc(N3CCC(Oc4cc(F)ccc4Br)CC3)nc2)c1 | Ratio [3]: 8
20 | 4470 | 268 | O=C(O)c1cncc(-c2cnc(N3CCC(Oc4cc(F)ccc4Br)CC3)nn2)c1 | Ratio [3]: 1.5
> 20000 |  |  | O=C(O)c1cncc(-c2ccc(N3CCC(Oc4c(F)cc(F)cc4Br)CC3)nn2)c1 | concentration at 3 h [4]: 730 nM; concentration at 3 h [5]: 30200 nM; concentration at 3 h [6]: 750 nM; inhibition (Mus musculus [7]): inactive; Activity (Mus musculus [8]): inactive; Ratio (Nucleic Acid): < 2
11000 |  |  | FC(F)(F)c1ccccc1OC1CCN(c2ccc(-c3cncc(-c4nnn[nH]4)c3)nn2)CC1 | 
27 | 5080 | 1000 | O=C(O)c1cncc(-c2ccc(N3CCC(Oc4ccccc4I)CC3)nn2)c1 | Ratio IC50 (HepG2): 5
24 | 2410 | 1930 | O=C(O)c1cncc(-c2ccc(N3CCC(Oc4cc(F)ccc4Br)CC3)nc2)c1 | Ratio [3]: 3
